Series [1] deals with SARS-CoV-2. Particulars: Homo sapiens; Caco-2; 10 uM.
Series [2] concerns SARS-CoV-2. Briefly: microbe, parasite or virus in culture. The note with it: Severe acute respiratory syndrome coronavirus 2, Caco-2, 48 h.
Series [3] is described as follows: in vitro. Particulars: human, Caco-2 cells.
A short description of series [4]: in vitro. The note with it: human.
The test system of series [5] is SARS-CoV-2. The note with it: caco-2.
The subject of a further series is Caco-2. Particulars: human, caco-2, 48 h.

Experimental findings from ChEMBL document CHEMBL4303101, “Identification of inhibitors of SARS-CoV-2 in-vitro cellular toxicity in human (Caco-2) cells using a large scale drug repurposing collection” (2020) are described below.

By inhibition is commonly meant the drop in the measured response relative to a control, in per cent. As usually defined, the IC50 is the concentration at which inhibition is half-maximal. Higher therefore signals weaker potency in that assay.

Consider ESCIN, for which the inhibition with SARS-CoV-2 [1] is -9.26%.

`COc1cc2ncc(-c3ccccc3)nc2cc1OC` registered a half-inhibitory concentration (IC50) with SARS-CoV-2 [2] of 0.2 µM. In addition, the CC50 at 48 h in the series “in vitro [3]” came out at 1.36 µM. Consider SODIUM ORTHOVANADATE, for which the inhibition in the series with SARS-CoV-2 [1] turned out to be 1.6%. With `CC1=C(CCC(=O)O)c2cc3nc(cc4[nH]c(cc5[nH]c(cc1n2)c(C)c5C(C)O)c(C)c4C(C)O)C(C)=C3CCC(=O)O` (stereo unspecified) [HAEMAPORPHYRIN], the CC50 at 48 h in the series “in vitro [3]” stood at 160 µM. The compound `CCC(CC)COC(=O)[C@H](C)N[P@](=O)(OC[C@H]1O[C@@](C#N)(c2ccc3c(N)ncnn23)[C@H](O)[C@@H]1O)Oc1ccccc1` came in with an IC50 in the series on SARS-CoV-2 [2] of 0.76 µM. Besides, the selectivity ratio in the series “in vitro [4]” (caco-2) stood at 3400. The same compound gave a CC50 at 48 h in the series “in vitro [3]” of 2580 µM. PHENYLMERCURIC ACETATE: in the series on SARS-CoV-2 [1], the inhibition came to 9.11%. In the case of THIMEROSAL, the half-maximal inhibitory concentration (IC50) in the series with SARS-CoV-2 [5] amounted to 1.69 µM. The compound also returned a CC50 in the series on Caco-2 of 13.5 µM.

As to GADOTERIDOL, the inhibition in the series with SARS-CoV-2 [1] amounted to 2.66%.

Take `Cc1nn(C)c2nc(NNC(=O)Nc3cc(Cl)nc(Cl)c3)cc(C(C)C)c12`: it took 5.97 µM to reach half-maximal inhibition in the series on SARS-CoV-2 [2] (IC50). In addition, the selectivity ratio in the series “in vitro [4]” (Caco-2 cells) turned out to be 3. This compound came in with a CC50 at 48 h in the series “in vitro [3]” of 16.4 µM.

In the series with SARS-CoV-2 [2], `CCCC[C@@]1(C2CCCC2)Cc2cc(OCCCC(=O)O)c(Cl)c(Cl)c2C1=O` displayed an IC50 of 12.8 µM. Also, the selectivity ratio in the series “in vitro [4]” (Caco-2 cells) turned out to be 2. This compound displayed a CC50 at 48 h in the series “in vitro [3]” of 24.6 µM. With `COC(=O)C[C@@](O)(CCC(C)(C)O)C(=O)O[C@@H]1C(OC)=C[C@]23CCCN2CCc2cc4c(cc2[C@@H]13)OCO4`, it took 19 µM to reach half-maximal inhibition with SARS-CoV-2 [2] (IC50). Further, the CC50 at 48 h in “in vitro [3]” turned out to be 0.07 µM. Regarding `N=C(Nc1ccc(I)cc1)NC1C2CC3CC(C2)CC1C3` (stereo unspecified), in the series with SARS-CoV-2 [2], the 50% inhibitory concentration (IC50) is 5.96 µM. The selectivity ratio in the series “in vitro [4]” (Caco-2 cells) was determined as 2. The compound also registered a CC50 at 48 h in “in vitro [3]” of 11.5 µM.

Regarding TOCOFERSOLAN, in the series on SARS-CoV-2 [1], the inhibition is 95.2%. The same measure, in the same setting: the figure for VITAMIN B12 is -8.31%. For `C=C(c1ccccc1OCc1cccc(Cl)c1)n1ccnc1` [CROCONAZOLE], half-maximal inhibition in the series with SARS-CoV-2 [2] (IC50) required 18.9 µM. The selectivity ratio in the series “in vitro [4]” (Caco-2 cells) worked out at 2. For the same compound, in “in vitro [3]”, the CC50 at 48 h stood at 33 µM. On to `C/C(=N\NC(=S)N1CCC1)c1ccccn1`, for which, in the series on SARS-CoV-2 [2], the IC50 is less than 0.02 µM. The selectivity ratio in “in vitro [4]” (Caco-2 cells) was 1. In the series “in vitro [3]”, the CC50 at 48 h is less than 0.02 µM.

For CYANOCOBALAMIN, the inhibition in the series on SARS-CoV-2 [1] was determined as 40.4%. In the case of `CCCCCCCCCCCCOCCOCCOCCOCCOCCOCCOCCOCCOCCO`, in the series on SARS-CoV-2 [2], half-maximal inhibition (IC50) required 0.22 µM. Also, the CC50 at 48 h in the series “in vitro [3]” is 10.3 µM.

For the compound CETRIMONIUM BROMIDE, in the series with SARS-CoV-2 [1], the inhibition was determined as 55.1%. Same read-out and setting: the figure for ACRIFLAVINE HYDROCHLORIDE is 69.4%. For `Cc1cccc2c1CC[C@H](CN1CCC(c3c(Cl)cccc3Cl)CC1)C[C@@H]2O`, in the series with SARS-CoV-2 [2], the IC50 is 0.77 µM. For the same compound, the selectivity ratio in the series “in vitro [4]” (Caco-2 cells) stood at 5. The CC50 at 48 h in “in vitro [3]” turned out to be 3.67 µM. The corresponding values for `CCS(=O)(=O)N(Cc1cccnc1)c1cccc(-c2ccc(C#N)cc2)c1` are 17.1 µM, 1 and 13.4 µM. `CC(=O)OC[C@]12CCC(C)=C[C@H]1O[C@@H]1[C@H](O)[C@@H](OC(C)=O)[C@@]2(C)[C@@]12CO2`: in the series with SARS-CoV-2 [1], the inhibition was 35%. As to `CCCCCCCCCCCCCCCCCC[S+](CCC)c1ccccc1C(=O)OCC` (stereo unspecified), the IC50 with SARS-CoV-2 [2] came out at 0.77 µM. Also, the selectivity ratio in the series “in vitro [4]” (Caco-2 cells) came to 1. Further, in the series “in vitro [3]”, the CC50 at 48 h came to 0.89 µM. Consider AUROTHIOGLUCOSE, for which the inhibition with SARS-CoV-2 [1] amounted to 2.42%. As for `Nc1nccc(-c2c(-c3ccc(F)cc3)ncn2C2CCCCC2)n1`, half-maximal inhibition in the series with SARS-CoV-2 [2] (IC50) was put at 19.2 µM. Besides, the CC50 at 48 h in “in vitro [3]” is 8.24 µM. For the compound AURANOFIN, the inhibition with SARS-CoV-2 [1] turned out to be 12.8%.

For the compound `CCOC(=O)c1ncc2[nH]c3ccc(OCc4ccccc4)cc3c2c1COC`, it took 1.34 µM to reach half-maximal inhibition in the series with SARS-CoV-2 [2] (IC50). Besides, in “in vitro [4]” (Caco-2 cells), the selectivity ratio came to 1. For the same compound, the CC50 at 48 h in the series “in vitro [3]” is 0.91 µM. For the compound COLISTIMETHATE SODIUM, the inhibition with SARS-CoV-2 [1] is -7.44%. In the series with SARS-CoV-2 [2], `Cn1cc(-c2ccc3c(c2)CCN3C(=O)Cc2cccc(C(F)(F)F)c2)c2c(N)ncnc21` had an IC50 of 0.25 µM. For the same compound, in “in vitro [4]” (Caco-2 cells), the selectivity ratio was more than 100. This compound also yielded a CC50 at 48 h in the series “in vitro [3]” of 70.4 µM. With `Nc1nc2c(ncn2[C@@H]2O[C@H](CO)[C@@H](O)[C@H]2O)c(=S)[nH]1` [THIOGUANOSINE], half-maximal inhibition with SARS-CoV-2 [2] (IC50) was put at 0.78 µM. In addition, the selectivity ratio in the series “in vitro [4]” (Caco-2 cells) was 1. Further, the CC50 at 48 h in “in vitro [3]” amounted to 0.63 µM. As for `Cc1cc(Nc2cc(N3CCN(C)CC3)nc(Sc3ccc(NC(=O)C4CC4)cc3)n2)n[nH]1`, in the series with SARS-CoV-2 [1], the inhibition is -0.85%.

As for NYSTATIN, in the series on SARS-CoV-2 [1], the inhibition is -4.11%. In turn, `CC(C)(C)c1ccc(/C=C/C(=O)Nc2ccc3c(c2)OCCO3)cc1` registered a half-maximal inhibitory concentration (IC50) in the series with SARS-CoV-2 [2] of 15 µM. In addition, the selectivity ratio in “in vitro [4]” (Caco-2 cells) was 1. In the series “in vitro [3]”, this compound came in with a CC50 at 48 h of 14.2 µM.

Compound `FC(F)(F)Oc1ccc2nc(-c3ccc(OCCOCCOc4ccc(-c5nc6ccc(OC(F)(F)F)cc6[nH]5)nc4)cn3)[nH]c2c1` gave an IC50 in the series with SARS-CoV-2 [2] of 0.19 µM. Besides, in the series “in vitro [4]” (Caco-2 cells), the selectivity ratio came to 35. The compound further registered a CC50 at 48 h in the series “in vitro [3]” of 6.58 µM.

In the series on SARS-CoV-2 [2], `C/C=C/C[C@@H](C)[C@@H](O)[C@H]1C(=O)N[C@@H](CC)C(=O)N(C)[C@H](C)C(=O)N(CC)[C@@H](C(C)C)C(=O)N[C@@H](C(C)C)C(=O)N(C)[C@@H](CC(C)C)C(=O)N[C@@H](C)C(=O)N[C@H](C)C(=O)N(C)[C@@H](CC(C)C)C(=O)N(C)[C@@H](CC(C)C)C(=O)N(C)[C@@H](C(C)C)C(=O)N1C` [ALISPORIVIR] displayed a half-inhibitory concentration (IC50) of 3.1 µM. Besides, the selectivity ratio in the series “in vitro [4]” (Caco-2 cells) is more than 6. Besides, the CC50 at 48 h in “in vitro [3]” was more than 20 µM.
